Patent US20250144067A1, “PERSONALIZED STARVATION THERAPY FOR CANCER” (Faeth Therapeutics, Inc., priority 2021, published 2025)
Structures can show the parent of a compound that is named as a salt.

Columns and labels:
[1] = tested on: NCI-H292 lung cancer cells; assay: FDA drug screening, complete media vs cholesterol-free media without statin (TABLE 1); assay type: cell-based, human
[2] = tested on: NCI-H292 lung cancer cells; assay: FDA drug screening, complete media vs cholesterol-free media with simvastatin (TABLE 2); assay type: cell-based, human; details: for Cholesterol-free media + simvastatin (0.04 μM) / Complete Media: NCI-H292 cells
[3] = NCI-H292 cells, cholesterol-free media without statin, FDA drug library screen
[4] = NCI-H292 cells, complete media, FDA drug library screen
[5] = complete vs cholesterol-free media, >0 enhanced anti-cancer activity, about 0 neutral, <0 antagonist
[6] = drug in cholesterol-free media with simvastatin 0.04 μM
[7] = complete media vs cholesterol-free media + simvastatin (0.04 μM), >0 enhanced anti-cancer activity, about 0 neutral, <0 antagonist
[8] = FDA library drug in cholesterol-free media with simvastatin 0.04 μM
[9] = FDA library drug in complete media
[10] = FDA drug library screen, cholesterol-free media with simvastatin 0.04 μM
[11] = FDA drug library screen, complete media
[12] = complete media minus cholesterol-free media + simvastatin, >0 enhanced anti-cancer activity, about 0 neutral, <0 antagonist
[13] = NCI-H292 cells, cholesterol-free media without statin
[14] = complete vs cholesterol-free media, greater than 0 enhanced anti-cancer activity, about 0 neutral, below 0 antagonists
[15] = Complete minus Cholesterol-free, greater than 0 enhanced anti-cancer activity, about 0 neutral, below 0 antagonist
[16] = NCI-H292 cells, FDA drug library screen, cholesterol-free media without statin
[17] = NCI-H292 cells, FDA drug library screen, complete media
[18] = cholesterol-free media with simvastatin 0.04 μM, cell growth value in FDA drug screen
[19] = complete media, cell growth value in FDA drug screen
[20] = cholesterol-free media with simvastatin 0.04 μM, FDA drug library screen (TABLE 2)
[21] = complete media, FDA drug library screen (TABLE 2)
[22] = complete media minus cholesterol-free media + simvastatin (0.04 μM), >0 enhanced anti-cancer activity, about 0 neutral, <0 antagonist
[23] = Complete minus Cholesterol-free, >0 enhanced anti-cancer activity, about 0 neutral, <0 antagonist

Cc1ncc(COP(=O)(O)O)c(C=O)c1O [Pyridoxal phosphate]
Cholesterol-free [1, 3]: 1.045 | Complete [1, 4]: 1.512 | Difference [1, 5]: 0.47 | Cholesterol-free media + simvastatin (0.04 μM) [2, 6]: 1.11 | Complete Media ([2]; drug in complete media): 0.9056 | Difference [2, 7]: −0.20

Cc1ncc(CO)c(CO)c1O.Cl [Pyridoxine (hydrochloride)]
Difference ([1]; Complete minus Cholesterol-free, […]): −0.61 | Cholesterol-free ([1]; NCI-H292 cells in cholesterol-free media without statin): 1.496 | Complete ([1]; NCI-H292 cells in complete media): 0.8868 | Cholesterol-free media + simvastatin (0.04 μM) [2, 8]: 1.33 | Complete Media [2, 9]: 0.9936 | Difference ([2]; complete media vs cholesterol-free media + simvastatin (0.04 μM), […]): −0.34

CCc1nc(N)nc(N)c1-c1ccc(Cl)cc1 [Pyrimethamine]
Cholesterol-free [1, 3]: 1.197 | Complete [1, 4]: 1.426 | Difference [1, 5]: 0.23 | Cholesterol-free media + simvastatin (0.04 μM) [2, 6]: 1.205 | Complete Media ([2]; drug in complete media): 1.02 | Difference [2, 7]: −0.19

Cc1ncc(CSSCc2cnc(C)c(O)c2CO)c(CO)c1O [Pyrithioxin (dihydrochloride)]
Cholesterol-free [1, 3]: 0.8349 | Complete [1, 4]: 1.062 | Difference [1, 5]: 0.23 | Cholesterol-free media + simvastatin (0.04 μM) [2, 10]: 0.9622 | Complete Media [2, 11]: 1.11 | Difference [2, 12]: 0.15

Cl.Cl.[O-][S+]1c2ccccc2N=C(N2CCN(CCOCCO)CC2)c2ccccc21 (stereo not shown) [Quetiapine sulfoxide (dihydrochloride)]
Cholesterol-free [1, 13]: 1.151 | Complete ([1]; NCI-H292 cells, complete media): 0.7759 | Difference [1, 14]: −0.38 | Cholesterol-free media + simvastatin (0.04 μM) [2, 10]: 1.184 | Complete Media [2, 11]: 1.082 | Difference [2, 7]: −0.10

OCCOCCN1CCN(C2=Nc3ccccc3Sc3ccccc32)CC1 [Quetiapine]
Difference [1, 15]: −0.09 | Cholesterol-free [1, 16]: 0.8483 | Complete [1, 17]: 0.7581 | Cholesterol-free media + simvastatin (0.04 μM) [2, 18]: 0.8037 | Complete Media [2, 19]: 0.9281 | Difference [2, 12]: 0.12

CCCN1CC(NS(=O)(=O)N(CC)CC)CC2Cc3c(O)cccc3CC21 (stereo not shown) [Quinagolide (hydrochloride)]
Difference [1, 15]: −0.15 | Cholesterol-free [1, 16]: 1.129 | Complete [1, 17]: 0.9753 | Cholesterol-free media + simvastatin (0.04 μM) [2, 18]: 0.9283 | Complete Media [2, 19]: 1.019 | Difference [2, 12]: 0.09

CCOC(=O)[C@H](CCc1ccccc1)N[C@@H](C)C(=O)N1Cc2ccccc2C[C@H]1C(=O)O [Quinapril (hydrochloride)]
Cholesterol-free [1, 3]: 0.6191 | Complete [1, 4]: 0.9945 | Difference [1, 5]: 0.38 | Cholesterol-free media + simvastatin (0.04 μM) [2, 8]: 1.23 | Complete Media [2, 9]: 0.862 | Difference [2, 7]: −0.37

C#C[C@]1(O)CC[C@H]2[C@@H]3CCc4cc(OC5CCCC5)ccc4[C@H]3CC[C@@]21C [Quinestrol]
Cholesterol-free [1, 13]: 1.478 | Complete ([1]; NCI-H292 cells, complete media): 1.012 | Difference [1, 14]: −0.47 | Cholesterol-free media + simvastatin (0.04 μM) [2, 20]: 0.01915 | Complete Media [2, 21]: 0.02153 | Difference [2, 22]: 0.00

C=C[C@H]1C[N@@]2CC[C@H]1C[C@@H]2[C@@H](O)c1ccnc2ccc(OC)cc12 [Quinidine hydrochloride monohydrate]
Difference [1, 23]: 0.01 | Cholesterol-free [1, 3]: 1.211 | Complete [1, 4]: 1.222 | Cholesterol-free media + simvastatin (0.04 μM) [2, 20]: 1.46 | Complete Media [2, 21]: 1.402 | Difference [2, 22]: −0.06

C=C[C@H]1C[N@@]2CC[C@H]1C[C@@H]2[C@@H](O)c1ccnc2ccc(OC)cc12 [Quinidine]
Complete [1, 4]: 1.951 | Difference [1, 5]: 0.93 | Complete Media [2, 9]: 0.8492 | Difference [2, 7]: −0.29

C=C[C@H]1C[N@@]2CC[C@H]1C[C@H]2[C@H](O)c1ccnc2ccc(OC)cc12 [Quinine (hydrochloride dihydrate)]
Difference [1, 23]: 0.03 | Cholesterol-free media + simvastatin (0.04 μM) [2, 10]: 1.208 | Difference [2, 7]: −0.15

C=C[C@H]1C[N@@]2CC[C@H]1C[C@H]2[C@H](O)c1ccnc2ccc(OC)cc12 [Quinine]
Cholesterol-free [1, 13]: 1.498 | Difference [1, 14]: −0.37 | Difference [2, 7]: −0.10

CC(C)(C)c1cc(NC(=O)Nc2ccc(-c3cn4c(n3)sc3cc(OCCN5CCOCC5)ccc34)cc2)no1 [Quizartinib]
Cholesterol-free [1, 3]: 0.663 | Complete [1, 4]: 0.7657 | Difference [1, 5]: 0.10 | Cholesterol-free media + simvastatin (0.04 μM) [2, 6]: 1.022 | Complete Media ([2]; drug in complete media): 0.8076 | Difference [2, 7]: −0.21
